Results: patent publication US20260098025A1, “DIMERIC COMPOUNDS AS INHIBITORS OF GLYCOGEN SYNTHASE 1 (GYS1) AND METHODS OF USE THEREOF” (Maze Therapeutics, Inc., priority 2022, published 2026)

Target: T1, recombinant hGYS1/GN1 protein (Homo sapiens, UniProt P13807)
T1 sequence (P13807 1-737): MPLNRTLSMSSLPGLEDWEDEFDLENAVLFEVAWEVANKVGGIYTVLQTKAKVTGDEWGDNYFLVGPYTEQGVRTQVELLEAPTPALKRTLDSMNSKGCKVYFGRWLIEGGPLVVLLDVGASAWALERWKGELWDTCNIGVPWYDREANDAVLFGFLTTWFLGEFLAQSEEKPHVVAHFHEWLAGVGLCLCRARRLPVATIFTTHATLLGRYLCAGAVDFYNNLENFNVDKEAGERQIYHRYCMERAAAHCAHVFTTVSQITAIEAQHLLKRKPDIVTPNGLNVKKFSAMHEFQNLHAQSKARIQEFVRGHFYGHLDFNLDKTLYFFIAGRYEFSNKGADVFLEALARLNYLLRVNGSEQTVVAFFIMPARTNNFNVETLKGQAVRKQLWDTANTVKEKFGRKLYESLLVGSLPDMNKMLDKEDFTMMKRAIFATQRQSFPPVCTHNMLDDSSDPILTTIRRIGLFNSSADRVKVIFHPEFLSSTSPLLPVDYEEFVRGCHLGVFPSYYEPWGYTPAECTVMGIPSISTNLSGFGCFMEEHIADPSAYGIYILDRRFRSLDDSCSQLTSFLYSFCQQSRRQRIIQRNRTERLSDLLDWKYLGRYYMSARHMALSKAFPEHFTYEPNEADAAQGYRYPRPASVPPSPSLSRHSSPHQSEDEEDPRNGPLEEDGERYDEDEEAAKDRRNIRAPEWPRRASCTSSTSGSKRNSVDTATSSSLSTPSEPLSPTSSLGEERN
T1 sequence (P46976 1-350 partner): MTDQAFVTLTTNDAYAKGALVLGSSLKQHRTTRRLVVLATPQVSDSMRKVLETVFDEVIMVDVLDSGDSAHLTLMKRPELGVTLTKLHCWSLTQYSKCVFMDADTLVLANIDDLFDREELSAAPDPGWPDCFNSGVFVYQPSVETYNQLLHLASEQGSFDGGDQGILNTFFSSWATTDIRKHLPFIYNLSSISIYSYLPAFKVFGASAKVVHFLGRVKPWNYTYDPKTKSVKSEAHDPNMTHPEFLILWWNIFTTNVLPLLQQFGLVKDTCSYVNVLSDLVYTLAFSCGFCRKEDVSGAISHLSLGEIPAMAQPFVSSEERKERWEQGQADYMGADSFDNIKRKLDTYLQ
Test: GYS1 coupled enzyme assay (PK/LDH, NADH absorbance at 340 nm)
Format: biochemical
Settings: geometric mean of at least 2 assay runs on separate days; hGYS1/GN1 50 nM, Glucose-6-Phosphate 1 mM, UDP-Glucose 0.8 mM
Source text: The GYS1 coupled enzyme assay is a kinetic biochemical assay that indirectly quantifies the rate of glycogen synthesis by coupling the conversion of GYS1 substrate UDP-glucose into UDP with downstream enzymatic reactions. UDP is released from UDP-glucose as glucose monomers are linked into the growing glycogen strand by GYS1. The coupled assay then proceeds with pyruvate kinase utilizing UDP and phospho(enol)pyruvate (PEP) to form pyruvate. Lactate dehydrogenase then converts pyruvate and NADH into lactate and NAD+. Oxidation of NADH to NAD+ can be measured continuously with a plate reader by quantifying the decrease in NADH absorbance at 340 nm over time.
Compounds that inhibit the hGYS1 enzyme and, subsequently, the downstream conversion of NADH to NAD+, were tested using assay ready plates (black, clear bottom 384 well plates) in a final DMSO reaction volume of 2.5% DMSO. The Assay Buffer contained 50 mM Tris pH 7.5, 2 mM MgCl2, and 100 mM KCl. Fresh stocks of BSA at a final concentration of 0.02% and TCEP at 1 mM were added before splitting buffer into hGYS1 buffer and substrate buffer. To the hGYS1 buffer, rabbit liver glycogen was added at a final concentration of 0.2% glycogen. Glucose-6-Phosphate was added at 1 mM, recombinant hGYS1/GN1 protein was added at 50 nM to the substrate buffer, phosphoenolpyruvate (PEP) was added at 2 mM, UDP-Glucose was added at 0.8 mM, NADH) was added at 0.6 mM, and Pyruvate Kinase/Lactate Dehydrogenase was added at 20 units/mL. The reaction was initiated by mixing hGYS1 buffer and substrate buffer at a 1:1 ratio. Both buffers were plated using a liquid dispensing device with hGYS1 buffer plated first followed by the substrate buffer. Plates were spun briefly to eliminate air bubbles and are immediately read in continuous mode at an absorbance of 340 nm, for 10 time points in one-minute increments, for a total of 10 minutes. The slope from these 10 time points was normalized to the positive and negative control wells. The duplicate % inhibition values are then averaged and fit to a Hill equation for dose response according to the Levenberg-Marquardt algorithm with the Hill equation maximum set to 100 and the minimum set to 0.
The results are shown in Table 2 below, which reports the IC50 of each compound. Unless otherwise specified, IC50 values are reported as the geometric mean of at least 2 assay runs on separate days. Each run represents the average of a technical replicate, where each compound was assayed twice in the same plate. As shown in the table below, the compounds of the present invention are potent inhibitors of human GYS1. A superscript “#” symbol in Table 2 indicates results from a single assay run.
Note that, in Table 2, the compounds are referred to by the corresponding Compound No. in Table 1, which is also referred to in the synthetic examples.

| Structure (SMILES) | IC50 |
| --- | --- |
| O=C(N[C@@H](c1ccccc1)c1ccc(C2CC2)c(F)n1)[C@@H]1C[C@@H](F)CN1C(=O)COCCOCCOCCOCCOCCOCCOCC(=O)N1C[C@H](F)C[C@H]1C(=O)N[C@@H](c1ccccc1)c1ccc(C2CC2)c(F)n1 [Compound 2, (2S,2′S,4R,4′R)-1,1′-(3,6,9,12,15,18,21-heptaoxatricosanedioyl)bis(N-((S)-(5-cyclopropyl-6-fluoropyridin-2-yl)(phenyl)methyl)-4-fluoropyrrolidine-2-carboxamide)] | 0.0056 µM |
| O=C(N[C@@H](c1ccccc1)c1ccc(C2CC2)c(F)n1)[C@@H]1C[C@@H](F)CN1C(=O)COCCOCCOCC(=O)N1C[C@H](F)C[C@H]1C(=O)N[C@@H](c1ccccc1)c1ccc(C2CC2)c(F)n1 [Compound 12, (2S,2′S,4R,4′R)-1,1′-(2,2′-((oxybis(ethane-2,1-diyl))bis(oxy))bis(acetyl))bis(N-((S)-(5-cyclopropyl-6-fluoropyridin-2-yl)(phenyl)methyl)-4-fluoropyrrolidine-2-carboxamide)] | 0.0821 µM |
| O=C(N[C@@H](c1ccccc1)c1ccc(C2CC2)c(F)n1)[C@@H]1C[C@@H](F)CN1C(=O)COCCOCCOCCOCCOCC(=O)N1C[C@H](F)C[C@H]1C(=O)N[C@@H](c1ccccc1)c1ccc(C2CC2)c(F)n1 [Compound 10, (2S,2′S,4R,4′R)-1,1′-(3,6,9,12,15-pentaoxaheptadecanedioyl)bis(N-((S)-(5-cyclopropyl-6-fluoropyridin-2-yl)(phenyl)methyl)-4-fluoropyrrolidine-2-carboxamide)] | 0.0144 µM |

The next lines start with the values.

| IC50 | Structure (SMILES) |
| --- | --- |
| 0.0108 µM | O=C(N[C@@H](c1ccccc1)c1ccc(C2CC2)c(F)n1)[C@@H]1C[C@@H](F)CN1C(=O)Cn1cc(OCCOCCOc2cn(CC(=O)N3C[C@H](F)C[C@H]3C(=O)N[C@@H](c3ccccc3)c3ccc(C4CC4)c(F)n3)nn2)nn1 [Compound 1, (2S,2′S,4R,4′R)-1,1′-(2,2′-(((oxybis(ethane-2,1-diyl))bis(oxy))bis(1H-1,2,3-triazole-4,1-diyl))bis(acetyl))bis(N-((S)-(5-cyclopropyl-6-fluoropyridin-2-yl)(phenyl)methyl)-4-fluoropyrrolidine-2-carboxamide)] |
| 0.0201 µM | O=C(N[C@@H](c1ccccc1)c1ccc(C2CC2)c(F)n1)[C@@H]1C[C@@H](F)CN1C(=O)Cn1cc(OCCOc2cn(CC(=O)N3C[C@H](F)C[C@H]3C(=O)N[C@@H](c3ccccc3)c3ccc(C4CC4)c(F)n3)nn2)nn1 [Compound 9, (2S,2′S,4R,4′R)-1,1′-(2,2′-((ethane-1,2-diylbis(oxy))bis(1H-1,2,3-triazole-4,1-diyl))bis(acetyl))bis(N-((S)-(5-cyclopropyl-6-fluoropyridin-2-yl)(phenyl)methyl)-4-fluoropyrrolidine-2-carboxamide)] |
